What was measured:
[1] = test system: MRSA FPR3757; experiment: Neutropenic thigh infection model; type: in vivo, mice; settings: MEM 50 mg·kg^−1 ip, 4 20 mg·kg^−1 sc, thighs at 24 h
Procedure: (§1) The neutropenic thigh infection model in mice is commonly used to test efficacy of antibacterial agents. It is a highly standardized and reproducible assay that evaluates attenuation of bacterial load (and not animal survival) as the endpoint. All current clinical antibiotics are evaluated in this model. The direct injection of bacteria into the thighs of mice mimics a human soft-tissue infection. Prior to infection, mice are made neutropenic by injection of cyclophosphamide to cause the temporary depletion of neutrophils, dampening the immune response and making mice more susceptible to infection. […] The potentiation of activity of β-lactam antibiotics by compound 4 observed in vitro, translates to in vivo activity.
(§2) Animals. Outbred 8-week-old female ICR mice for PK and neutropenic thigh infection studies were purchased from Envigo, Indianapolis, IN. The average weight of the mice for the PK study was 30 g (range 26.1 to 33.1 g); mice in the neutropenic thigh infection weights ranged from 24.2 to 37.7 g and were on average 29 g at the initiation of the study. Mice were housed in polycarbonate shoebox cages (for the PK study) or in disposable cages (for the infection studies) with ¼-inch corncob (The Andersons Inc., Maumee, OH) and Alpha-Dri (Shepherd Specialty Papers, Inc., Richland, MI) bedding with a 12-h light/dark cycle at 72° F. The animals were given food (Teklad 2918 irradiated extruded rodent diet) and water ad libitum. The food and water were autoclaved for the infection studies. All procedures were performed in accordance with and approved by the University of Notre Dame Institutional Animal Care and Use Committee.
(§3) Neutropenic thigh infection studies. Mice (n=5 per group, total of 155 mice) were made neutropenic by injection of cyclophosphamide (Sigma-Aldrich, St. Louis, MO) intraperitoneally at 200 mg·kg^−1 (100 μL of a 60 mg·mL^−1 solution) on days −4 and −1. MRSA NRS21 and FPR3757 were grown in Tryptic Soy Agar and diluted to a final concentration of 10^6 CFU·mL^−1 in Brain-heart Infusion. On day 0, 100 μL of bacterial inoculum was injected intramuscularly into each of the right and left thighs. […] MEM was given intraperitoneally at 50 or 100 mg·kg^−1. […] MEM was given intraperitoneally at 50 or 100 mg·kg^−1 at 1 h, 5 h, 9 h, 13 h, 17 h, and 21 h after infection. […] MEM was prepared in 10% DMSO/20% Tween80/70% saline (0.9% NaCl in sterilized water). A vehicle group was included. At 24 h after infection, the mice were euthanized. Both thighs were dissected aseptically, weighed, and homogenized with two volumes of 1×PBS in a Bullet blender (Next Advance, Inc., Averill Park, NY) at 4° C., followed by centrifugation. […] The number of colonies were counted. […]

[2] = test system: MRSA NRS21; experiment: Neutropenic thigh infection model; type: in vivo, mice; settings: single agent (4 20 mg·kg^−1 or OXA 40 mg·kg^−1 sc at 1, 9, 17 h), 24 h
Procedure: as §1, §2, §3

[3] = test system: active-site serine penicillin-binding proteins; experiment: Inhibition of penicillin-binding proteins
[4] = test system: HepG2 (liver) cells; experiment: XTT cytotoxicity assay; type: cell-based; settings: HepG2 cells
Procedure: (§4) We evaluated additionally the in vitro cytotoxicity of compound 4 using the XTT assay with HepG2 (liver) cells. Cell viability was 100% at 64 mg·L^−1.
(§5) XTT assay. Compound 4 was evaluated in triplicate in the XTT assay (XTT cell proliferation assay, Canvax, Spain) with HepG2 cells, as described previously (Eur. J. Med. Chem. 253, 115329 (2023)). GraphPad Prism 5 (San Diego, CA) was used to calculate IC50 values.

[5] = XTT cytotoxicity assay; type: cell-based; settings: human, hepg2 cells; HepG2; at 64 mg·L^−1; read-out: Cell viability
Procedure: as §4, §5

[6] = test system: NRS21; experiment: Time-kill assay; type: cell-based, Staphylococcus aureus; settings: for antibacterial activity as single-drug treatment: FIG. 3, 24 h, OXA 32 mg·L^−1, 4 8 mg·L^−1
Procedure: (§6) Time-kill assay. MRSA strains (NRS21, NRS70, NRS382, NRS404, HFH 29568, and HFH 30495) were grown overnight on tryptic soy agar plate. Bacteria were diluted in Muller-Hinton broth containing 2% NaCl to […] CFU·mL^−1. […] For MEM and CPT, cation-adjusted Muller-Hinton broth without 2% NaCl was used. Aliquots were taken at 0, 3, 6, 9, 12, and 24 h and were diluted serially for bacterial counts. The assay was done in triplicate.

[7] = test system: strain NRS21; experiment: Checkerboard assay; type: cell-based, Staphylococcus aureus; settings: 24-h incubation
Procedure: (§7) Synergy with β-Lactams and Time-Kill Assays. […] In this assay, the antibiotics are compared individually and in combination. The fractional inhibitory concentration (FIC) index is calculated. Synergy is defined as an FIC value ≤0.5, indifference as FIC >0.5 to ≤4, and antagonism as FIC >4.
(§8) Checkerboard assay. […] The final inoculum in each well was 5×10^5 CFU·mL^−1, and the result was read after 24-h incubation at 37° C. The fractional inhibitory concentration (FIC) index was calculated for each combination. An FIC index of ≤0.5 is considered synergistic. The experiment was done in triplicates.

[8] = test system: additional MRSA strains; experiment: Checkerboard assay; type: cell-based, Staphylococcus aureus
Procedure: as §7, §8

[9] = test system: HFH29568; experiment: Time-kill assay; type: cell-based, Staphylococcus aureus
Procedure: as §6

[10] = test system: HFH29568; experiment: Checkerboard assay; type: cell-based, Staphylococcus aureus
Procedure: as §7, §8

[11] = test system: HI049; experiment: Checkerboard assay; type: cell-based, Staphylococcus aureus
Procedure: as §7, §8

| SMILES | log reduction compared to vehicle [1] | decrease in bacterial counts compared to vehicle-treated mice [2] | inhibitory properties against penicillin-binding proteins [3] | in vitro cytotoxicity [4] | viability [5] | antibacterial activity as single-drug treatment [6] | log increase in bacterial growth at 24 h ([6]; compound 4 at 8 mg·L^−1) | FIC index, 4 with FOX [7] | FIC index, 4 with OXA [7] | FIC, 4 with OXA, MEM, FOX, or CPT [8] | log10 decrease in bacterial growth ([9]; MEM by itself, at 6 h) | activity of MEM by itself ([9]; by 24 h) | FIC index, 4 with MEM [10] | FIC index, 4 with MEM [11] | log increase compared to initial bacterial count at 0 h ([6]; OXA at 32 mg·L^−1 by itself) |
| --- | --- | --- | --- | --- | --- | --- | --- | --- | --- | --- | --- | --- | --- | --- | --- |
| N#Cc1ccc2nc(SCB(O)O)n(Cc3ccc(C(F)(F)F)cc3C(F)(F)F)c2c1 [Compound 4, (((1-(2,4-bis(trifluoro-methyl)benzyl)-6-cyano-1H-benzo[d]imidazol-2-yl)thio)methyl)boronic acid] | 0.06 log | did not show a statistically significant decrease in bacterial counts | modest inhibitory properties | not toxic to HepG2 cells | 100% | did not show antibacterial activity | 4.1 log | 0.25 | 0.19 | < 0.25 |  |  |  |  |  |
| C[C@@H](O)[C@H]1C(=O)N2C(C(=O)O)=C(S[C@@H]3CN[C@H](C(=O)N(C)C)C3)[C@H](C)[C@H]12 [MEM, meropenem] | 1.2 log |  |  |  |  |  |  |  |  |  | 2 log10 | no activity | 0.09 | 0.19 |  |
| Cc1onc(-c2ccccc2)c1C(=O)N[C@@H]1C(=O)N2[C@@H]1SC(C)(C)[C@@H]2C(=O)O [OXA, oxacillin] |  | did not show a statistically significant decrease in bacterial counts |  |  |  | did not show antibacterial activity |  |  |  |  |  |  |  |  | 1.9 log |

Source: patent US20260284011A1, “COMPOUNDS FOR RESTORING SUSCEPTIBILITY TO BETA-LACTAM ANTIBIOTICS” (UNIVERSITY OF NOTRE DAME DU LAC, priority 2023, published 2026)
